The values that follow come from US10338078B2, “Method and apparatus for analyzing biomolecules using Raman spectroscopy” (Japan Science and Technology Agency, priority 2012, dated 2019).

One assay concerns target protein. As to conditions: cited from earlier work.
For the next assay, the target named is cathepsin B (Homo sapiens, UniProt P07858). In words: inhibition of cathepsin B enzyme activity. It is filed as biochemical. The settings on record: read-out: activity to inhibit cathepsin B, IC50. From the text: Persons skilled in the art can appropriately select the position to introduce the Raman label as well as the type of Raman label to introduce by considering the structure of the compound. Moreover, persons skilled in the art having general techniques in the field of organic synthesis can appropriately synthesize a Raman-labeled compound as the low-molecular-weight compound according to the present invention. This is explained with a specific example as follows. Persons skilled in the art can synthesize an AOMK derivative (hereinafter, also referred to as RAT8-AOMK) by Raman-labeling acyloxymethyl ketone (AOMK) (an inhibitor of cathepsin B) with alkyne using general techniques in the field of organic synthesis. The RAT8-AOMK binds to cathepsin B, so as to inhibit its enzyme activity. The activity of RAT8-AOMK to inhibit cathepsin B is represented by IC50=0.3 μM. RAT8-AOMK can be synthesized and obtained by reacting N-Boc-AOMK (IC50=0.05 μM) with 4-nitrophenyl-4-ethynylbenzyl carbonate. Acyloxymethyl ketone (AOMK) is known as a cysteine protease inhibitor. The principle thereof is that a cysteine residue of the active center of an enzyme protein is modified by AOMK, and thus activity as protease is diminished (see FIG. 24).

pIC50: −log10 of the molar value.

On to 16F16, for which the “activity when modified with a fluorophore” value in the assay with target protein was “loses its activity”.

For the molecule `C#Cc1ccc(COC(=O)N[C@@H](Cc2ccccc2)C(=O)NCC(=O)COC(=O)c2c(C)cccc2C)cc1` [RAT8-AOMK], the negative logarithm of the IC50 (pIC50) (in general, the IC50 on a negative log10 scale, so that one unit is a factor of ten) at cathepsin B is 6.52.
